Test results as given in patent US5358947A, “Angiotensin II receptor blocking 2,3-substituted pyrazolo[1,5-a]-1,3,5-triazin-4(3H)-ones” (American Cyanamid Company, priority 1993, dated 1994).
Where a name gives a salt, the structure may show the parent alone.

Each compound was assayed against T1, Angiotensin II Receptor (Bos taurus, UniProt P25104) (assay: Angiotensin II receptor binding assay ([125I](Sar1,Ile8)AngII displacement, beef adrenal cortex membranes)). Settings: 60 minutes, room temperature.
T1 construct: The brownish tissue forming the adrenal cortex is scraped off and finely minced with scissors before homogenization; tissue local slaughter house (Maxwell-Cohen); host or cells: beef adrenal cortex, microsomal membranes (100,000×g pellet)
T1 sequence (P25104 1-359): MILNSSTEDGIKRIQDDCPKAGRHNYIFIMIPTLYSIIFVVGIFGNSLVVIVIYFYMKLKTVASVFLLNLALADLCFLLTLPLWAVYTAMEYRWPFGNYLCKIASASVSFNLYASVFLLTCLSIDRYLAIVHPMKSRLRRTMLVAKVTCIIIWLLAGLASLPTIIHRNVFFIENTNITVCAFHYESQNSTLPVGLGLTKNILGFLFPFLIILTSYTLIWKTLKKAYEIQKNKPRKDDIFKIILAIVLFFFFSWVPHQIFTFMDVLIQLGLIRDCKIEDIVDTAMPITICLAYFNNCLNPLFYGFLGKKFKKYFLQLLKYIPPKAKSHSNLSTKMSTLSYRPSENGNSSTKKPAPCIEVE
Description: Beef adrenals are obtained from a local slaughter house (Maxwell-Cohen). [^125 I](Sar^1,Ile^8)AngII, S.A. 2200 Ci/mmole, is purchased from Dupont (NEN®, Boston, Mass.). all unlabeled AngII analogs, Dimethylsulfoxide (DMSO), nucleotides, bovine serum albumin (BSA) are purchased from Sigma Chemical Co , St Louis, Mo. U.S.A.
Approximately sixteen (16) to twenty (20) beef adrenal glands are processed as follows: fresh adrenal glands received on crushed ice are cleaned of fatty tissues and the tough membranes encapsulating the glands are removed and discarded. The brownish tissue forming the adrenal cortex is scraped off and finely minced with scissors before homogenization. Care is taken to avoid contamination with medullary tissue during dissection. The scraped cortices are suspended in twenty volumes of an ice-cold buffer medium consisting of 10 mM Tris.HCl (pH 7.4 at 22° C.) and containing 1.0 mM EDTA and 0.2M sucrose. Unless otherwise indicated, all subsequent operations are done at 4° C. The tissue is homogenized in a glass homogenizer with a motor driven teflon pestle with a clearance of 1.0 mm. The homogenate is centrifuged first at low speed (3,000×g) for 10 minutes. The resulting pellet is discarded and the supernatant fluid recentrifuged at 10,000×g of 15 minutes to give a P2 pellet. This P2 pellet is discarded and the liquid phase is carefully decanted off in clean centrifuge tubes and recentrifuged at high speed (100,000×g) for 60 minutes. The translucent final pellet is harvested and combined in a small volume (20-50.0 ml) of 50.0 mM Tris.HCl buffer, pH 7.2. A 100 ul aliquot is withdrawn and the protein content of the preparation is determined by the Lowry's method (Lowry, O. H., Rosebrough, N. F., Farr, A. L. and Randall, R. J., Protein measurement with Folin phenol reagent. J. Biol. Chem., […], 265-275, 1951). The pelleted membrane is reconstituted in 50.0 mM Tris.HCl buffer containing 0.1 mM of phenylmethylsulfonyl fluoride (PMSF) to give approximately a protein concentration of 2.5 mg per ml of tissue suspension. The membrane preparation is finally aliquoted in 1.0 ml volumes and stored at -70° C. until use in the binding assays.
Binding of[^125 I](Sar^1,Ile^8)AngII
The binding of [^125 I](Sar^1 Ile^8)AngII to microsomal membranes is initiated by the addition of reconstituted membranes (1:10 vols.) in freshly made 50.0 mMTris.HCl buffer, pH 7.4 containing 0.25% heat inactivated bovine serum albumin (BSA): 80 ul membrane protein (10 to 20 ug/assay) to wells already containing 100 ul of incubatin buffer (as described above) and 20 ul [^125 I](Sar^1,Ile^8)AngII (Specific Activity 2200 Ci/mmole). Non-specific binding is measured in the presence of 1.0 uM unlabeled (Sar^1,Ile^8)AngII, added in 20 ul volume. Specific binding for [^125 I](Sar^1, Ile^8)AngII is greater than 90% In competition studies, experimental compounds are diluted in dimethylsulfoxide (DMSO) and added in 20 ul to wells before the introduction of tissue membranes. This concentration of DMSO is found to have no negative effects on the binding of [^125 I](Sar^1, Ile^8)AngII to the membranes. Assays are performed in triplicate. The wells are left undisturbed for 60 minutes at room temperature. Following incubation, all wells are harvested at once with a Brandel® Harvester especially designed for a 96 well plate (Brandel®Biomedical Research & Development Labs. Inc., Gaithersburg, Md., U.S.A.). The filter discs are washed with 10×1.0 ml of cold 0.9% NaCl to remove unbound ligand. […] This method is routinely used. The filters are removed from the filter grid and counted in a Parkard® Cobra Gamma Counter for 1 minute. (Packard Instrument Co., Downers Grove, Ill., U.S.A.). The binding data are analyzed by the non-linear interactive "LUNDON-1" program (LUNDON SOFTWARE Inc., Cleveland, Ohio U.S.A.). […]

| SMILES | IC50 [nM] |
| --- | --- |
| CCCCc1nc2cc(-c3ccccc3)nn2c(=O)n1Cc1ccc(-c2ccccc2-c2nnn[nH]2)cc1 [Example 10, 2-Butyl-7-phenyl-3-[[2'-(1H-tetrazol-5-yl)[1,1'-biphenyl]-4-yl]methyl]pyrazolo[1,5-a]-1,3,5-triazin-4(3H)-one] | 760 |
| CCCCc1nc2c(Br)cnn2c(=O)n1Cc1ccc(-c2ccccc2-c2nn[nH]n2)cc1 [Example 20] | 4000 |
| CCCCc1nc2cc(-c3ccc(F)cc3)nn2c(=O)n1Cc1ccc(-c2ccccc2-c2nnn[nH]2)cc1 [Example 12, 2-Butyl-7-(4-fluorophenyl)-3-[[2'-(1H-tetrazol-5-yl)[1,1'-biphenyl]-4-yl]methyl]pyrazolo[1,5-a]-1,3,5-triazin-4(3H)-one] | 63 |
| CCCCc1nc2cc(-c3ccco3)nn2c(=O)n1Cc1ccc(-c2ccccc2-c2nnn[nH]2)cc1 [Example 11, 2-Butyl-7-(2-furanyl)-3-[[2'-(1H-tetrazol-5-yl)[1,1'-biphenyl]-4-yl]methyl]pyrazolo[1,5-a]-1,3,5-triazin-4(3H)-one] | 670 |
| CCCCc1nc2ccnn2c(=O)n1Cc1ccc(-c2ccccc2-c2nn[nH]n2)cc1 [Example 17, 2-Butyl-3-[[2'-(1H-tetrazol-5-yl)[1,1'-biphenyl]-4-yl]methyl]pyrazolo[1,5-a]-1,3,5-triazin-4(3H) -one] | 1200 |
| CCCCc1nc2ccnn2c(=O)n1Cc1ccc(-c2ccccc2-c2nn[nH]n2)cc1 [Example 21, 2-Butyl-3-[[2'-(1H-tetrazol-5-yl)-[[1,1'-biphenyl]-4-yl]methyl]-pyrazolo[1,5-a]-1,3,5-triazin-4(3H)-one potassium salt] | 3000 |
